{
  "source": "patent US20250082565A1",
  "about": "“ANTIOXIDANT COSMETIC COMPLEX, COSMETIC COMPOSITION, USE AND METHOD FOR COSMETIC TREATMENT” (Natura Cosméticos S.A., priority 2023, published 2025)",
  "key": {"[1]": {"assay": "Singlet oxygen suppression (emission at 1270 nm)", "details": "Stern-Volmer model; phosphorescence at 1270 nm in ethanol", "method": "(§1) The excited state suppression ability was assessed by measuring the transient absorption of triplet states using flash photolysis and by singlet oxygen emission in the near infrared.\nSinglet oxygen suppression: The detector (PMT Hamamatsu R5509—model PC176TSCE005) was cooled to −80° C. and set to 1500 V and the signals were acquired using a proprietary software from SHB Analytics GmbH (Germany). Excitation was performed by a Quantel Brilliant laser (2 w-3 w-Rainbow). Emission from the sample is filtered so that irradiation in the range of from […] is detected. A microcomputer is connected to the system and analysis of the transients is carried out using an ultra-fast acquisition plate. It is important to remember that luminescence emission at 1270 nm is characteristic of singlet oxygen, being the safest method of detecting the presence and reactivity of this species. […]\nTo assess the actives' ability of suppressing singlet oxygen (1O2), the near-infrared emission (1270 nm) was measured, which is characteristic of 1O2 and a golden standard for this detection. […]\nThe detector (PMT Hamamatsu-model H10330-45) was cooled to −80° C. and set to −800 V and the signals were acquired using a proprietary software from SHB Analytics GmbH (Germany). […] Sample emission is detected in the range of 1270±20 nm. […]"}, "[2]": {"assay": "Suppression of triplet species (laser flash photolysis)", "details": "Stern-Volmer model; 10 μM methylene blue, excitation 660 nm, argon purged; individual actives", "method": "as §1\nTriplet suppression: The SHB Laser Flash Photolysis system was used (FIG. 14). A laser pulse (10 mJ/pulse, 10-20 ns) impinges on the sample providing electronic excitation. To assess the formation and the lifetime of excited states or other reactive intermediates, the change in absorbance prior to and after electronic excitation of the sample is monitored by an optical beam (LED) as a function of time. It monitors the disappearance of the species in the fundamental state or the appearance of the excited or radical species. The laser beam is positioned at 90° to the monitoring beam. Shutters are used in both the excitation and monitoring beams to protect the sample from photolysis. The detector in this technique consists of a combination of filters and diode detector. The diode response is read on a digital oscilloscope (Tektronix 2230), which data is subsequently transferred to the microcomputer. The entire equipment is controlled by a microcomputer and the time resolution of the instrument is of about 50 ns. A Quantel Nd: YAG laser (2 w, 3 w Rainbow, pulsed at 3 ns, 80.1% power) was used. […] Readings were taken in a 2 mm×10 mm quartz cuvette. […]"}},
  "data": [
    {"smiles": "CC1=C(/C=C/C(C)=C/C=C/C(C)=C/C=C/C=C(C)/C=C/C=C(C)/C=C/C2=C(C)CCCC2(C)C)C(C)(C)CCC1", "note": "[Beta-carotene]", "values": [
      {"measurement": "KSV (singlet oxygen suppression constant)", "setting": "[1]", "result": "30.5 × 10^4 mg^−1mLs^−1"},
      {"measurement": "KSt (triplet suppression constant)", "setting": "[2]", "result": "0.16 ± 0.05", "unit": "μg^−1μL"}
    ]}
  ]
}
